Results: patent US20240067617A1 (Albireo AB, priority 2022, published 2024)

Experiment: Bidirectional permeability assay (Caco-2 cells)
Format: in vitro ADME
Conditions: human, 10 μM in FaSSIF buffer, 120 minutes at 37° C.; for Papp A→B at 120 min, 10 µM: absorptive direction (A2B); for Papp B→A at 120 min, 10 µM: secretory direction (B2A)
Description: Bidirectional Permeability Assay (Caco-2 Cells)
Caco-2 cells (Evotec) were seeded at a density of 70,000 cells/well in Millicell© 24-well cell culture insert plates and maintained in an incubator (37° C., 5% CO2, 95% RH) for 21 days with media change on alternate days.
Stock solutions (10 mM) of the test compounds, atenolol (low permeability marker), propranolol (high permeability marker) and digoxin (substrate for P-gp transport pathway) were prepared in dimethylsulfoxide (DMSO). An intermediate stock solution (1 mM) was prepared by diluting 10 μL of 10 mM master stock solution with 90 μL of neat DMSO. A working stock solution (10 μM) was prepared by diluting 50 μL of 1 mM with 4950 μL of FaSSIF buffer. Post addition of compounds to the FaSSIF, samples were subjected to sonication for 2 hours, and centrifuged at 4000 RPM for 30 minutes at 37° C. The 4 mL of resultant supernatant was directly used in the assay. The final DMSO concentration in the transport experiments was 1%.
On the day of assay, Caco-2 monolayers were washed twice with transport buffer (HBSS, pH 7.4) and pre-incubated for 30 min (37° C., 5% CO2, 95% RH) in an incubator. The electrical resistance of the monolayers was measured with a Millicell®-ERS system. Monolayers with trans-epithelial electrical resistance (TEER) values greater than 350 ohm·cm^2 were selected for the assay.
The assay was conducted in absorptive direction (A2B) and secretory (B2A) directions. Transport experiments were initiated by addition of transport assay buffer (FaSSIF buffer prepared in HBSS) consisting of compounds to the donor compartment (apical chamber A-B; basolateral chamber B-A) in duplicate (n=2) wells. Drug free HBSS buffer (pH 7.4) containing 1% bovine serum albumin (BSA) was introduced to the receiver (A-B-basolateral; B-A-Apical) compartments. The volumes of apical and basolateral compartments were 0.4 and 0.8 mL, respectively. After adding dosing solution, plates were incubated in an incubator for 120 minutes at 37° C. After 120 minutes, donor and receiver samples were collected and matrix matched (1:1, 30 μL study sample+30 μL blank buffer) with the opposite buffer. Dosing samples matrix matched (1:1, 30 μL study sample+30 μL blank buffer) with the opposite buffer. Samples were processed by adding acetonitrile containing internal standard (60 μL study sample+200 μL acetonitrile containing internal standard—Tolbutamide, 500 ng/mL). Samples were vortexed and centrifuged at 4000 rpm for 10 minutes. The obtained supernatant (100 μL) was diluted with 100 μL of water and transferred to fresh 96 well plates. The concentration of compounds in the samples was analyzed by liquid chromatography tandem mass spectrometry (LC-MS/MS) method using discovery grade bio-analytical method, as applicable.
The mean apparent permeability (Papp,×10^−6 cm/sec) of the test compounds, atenolol, propranolol and digoxin were calculated as follows:
where dq/dt=rate of transport (rate of transport of compound in the receiver compartment), C0=initial concentration in the donor compartment, A=surface area of the effective filter membrane.

Papp A→B at 120 min, 10 µM [×10⁻⁶ cm/s] | Papp B→A at 120 min, 10 µM [×10⁻⁶ cm/s] | SMILES
7.5 | 9.3 | CCCCC1(CC)CN(c2ccccc2)c2cc(SC)c(CSCC(=O)O)cc2S(=O)(=O)C1 (single isomer, unassigned) [2, enantiomer 1]
29.3 | 25.3 | CCCCC1(C)CN(c2ccccc2)c2cc(SC)c(CSCC(=O)O)cc2S(=O)(=O)C1 (single isomer, unassigned) [5, enantiomer 1]
24.3 | 21.3 | CCCCC1(CC)CN(c2ccc(F)cc2)c2cc(SC)c(CSCC(=O)O)cc2S(=O)(=O)C1 (single isomer, unassigned) [7, enantiomer 1]
